Laboratory results reported in patent US20190352288A1, “MATRIX METALLOPROTEINASE (MMP) INHIBITORS AND METHODS OF USE THEREOF” (Foresee Pharmaceuticals Co., Ltd., priority 2018, published 2019).

What was measured:
Type in all cases: biochemical
Conditions in all cases: Table 2 selectivity profile
recombinant human MMP-1 = target: T1, recombinant human MMP-1 (Homo sapiens, UniProt P03956); assay: MMP selectivity assay, MMP-1
T1 sequence (P03956 100-469): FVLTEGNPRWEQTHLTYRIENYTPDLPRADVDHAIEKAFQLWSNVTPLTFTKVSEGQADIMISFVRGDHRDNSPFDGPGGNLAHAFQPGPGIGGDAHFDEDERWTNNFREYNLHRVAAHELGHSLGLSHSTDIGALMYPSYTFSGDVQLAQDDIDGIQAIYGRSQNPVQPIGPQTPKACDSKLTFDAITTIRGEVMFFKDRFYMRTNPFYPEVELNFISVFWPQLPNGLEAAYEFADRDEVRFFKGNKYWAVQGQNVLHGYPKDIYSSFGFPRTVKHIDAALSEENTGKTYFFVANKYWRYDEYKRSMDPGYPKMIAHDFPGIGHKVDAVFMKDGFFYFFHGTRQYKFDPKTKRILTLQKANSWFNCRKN
Method: (§1) The inhibitory effect of compounds on the rate of cleaving fluorogenic MMP substrate (Enzo, BML-P128) by recombinant human MMP-12 catalytic domain (Enzo, BML-SE138) was carried out by methods known in the art. Briefly, to each well of a 96-well black opaque plate, all the reagents were sequentially added by pipetting, and the final reaction contained 4 nM of recombinant human MMP-12 catalytic domain, 4 μM of fluorogenic MMP substrate, and various concentrations (0.15 nM to 10,000 nM) of tested compound dilutions in HEPES buffer (pH 7.5) containing 10 mM of CaCl2), 0.01% Brij® 35 (polyoxyethylene (23) lauryl ether), and 0.1 mg/ml of BSA.
(§2) The enzyme and compounds were pre-incubated on a shaker to mix in wells. After an hour of mixing, fluorogenic substrate was added to each well. Reaction without enzyme was used as a blank control in the plate. The plate was then fed into a plate reader to measure fluorescence intensity at Excitation/Emission wavelengths of 340 nm/440 nm every 10 mins for at least 1 hour at 37° C. The IC50 of each compound in MMP-12 inhibition was determined by using a readout obtained at time point 30 minutes.
(§3) The MMP selectivity assay was performed by using other recombinant human MMPs, including MMP-1, MMP-2, MMP-3, MMP-7, MMP-8, MMP-9, MMP-10, MMP-13, and MMP-14. The IC50 of the compounds for the other recombinant human MMPs was determined as described above in Example 1, and are shown in Table 2.

recombinant human MMP-2 = target: T2, recombinant human MMP-2 (Homo sapiens, UniProt P08253); assay: MMP selectivity assay, MMP-2
T2 sequence (P08253 110-660): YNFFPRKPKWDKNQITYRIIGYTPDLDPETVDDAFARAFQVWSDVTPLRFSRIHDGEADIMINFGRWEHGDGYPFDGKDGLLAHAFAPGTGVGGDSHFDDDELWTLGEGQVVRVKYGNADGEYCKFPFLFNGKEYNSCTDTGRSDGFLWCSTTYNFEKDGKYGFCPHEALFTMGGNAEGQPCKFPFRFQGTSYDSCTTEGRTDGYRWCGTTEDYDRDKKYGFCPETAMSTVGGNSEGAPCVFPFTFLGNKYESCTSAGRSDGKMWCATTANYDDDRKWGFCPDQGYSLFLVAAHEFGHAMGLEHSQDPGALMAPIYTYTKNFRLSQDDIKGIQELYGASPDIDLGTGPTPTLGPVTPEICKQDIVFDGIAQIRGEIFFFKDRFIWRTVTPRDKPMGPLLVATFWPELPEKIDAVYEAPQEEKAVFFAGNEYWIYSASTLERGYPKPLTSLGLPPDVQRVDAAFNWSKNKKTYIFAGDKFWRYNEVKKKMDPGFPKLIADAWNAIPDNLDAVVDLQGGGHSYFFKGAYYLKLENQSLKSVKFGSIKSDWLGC
Method: as §1, §2, §3

recombinant human MMP-3 = recombinant human MMP-3 (Homo sapiens, UniProt P08254); assay: MMP selectivity assay, MMP-3
Method: as §1, §2, §3

recombinant human MMP-7 = target: T3, recombinant human MMP-7 (Homo sapiens, UniProt P09237); assay: MMP selectivity assay, MMP-7
T3 sequence (P09237 95-267): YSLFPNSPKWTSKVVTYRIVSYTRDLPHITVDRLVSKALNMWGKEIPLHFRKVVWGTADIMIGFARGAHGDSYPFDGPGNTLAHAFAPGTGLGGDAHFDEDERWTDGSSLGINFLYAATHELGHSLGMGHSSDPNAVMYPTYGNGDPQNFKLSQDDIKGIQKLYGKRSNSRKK
Method: as §1, §2, §3

recombinant human MMP-8 = recombinant human MMP-8 (Homo sapiens, UniProt P22894); assay: MMP selectivity assay, MMP-8
Method: as §1, §2, §3

recombinant human MMP-9 = recombinant human MMP-9 (Homo sapiens, UniProt P14780); assay: MMP selectivity assay, MMP-9
Method: as §1, §2, §3

recombinant human MMP-10 = recombinant human MMP-10 (Homo sapiens, UniProt P09238); assay: MMP selectivity assay, MMP-10
Method: as §1, §2, §3

recombinant human MMP-13 = recombinant human MMP-13 (Homo sapiens, UniProt P45452); assay: MMP selectivity assay, MMP-13
Method: as §1, §2, §3

recombinant human MMP-14 = recombinant human MMP-14 (Homo sapiens, UniProt P50281); assay: MMP selectivity assay, MMP-14
Method: as §1, §2, §3

recombinant human MMP-3, sequence (P08254 100-477): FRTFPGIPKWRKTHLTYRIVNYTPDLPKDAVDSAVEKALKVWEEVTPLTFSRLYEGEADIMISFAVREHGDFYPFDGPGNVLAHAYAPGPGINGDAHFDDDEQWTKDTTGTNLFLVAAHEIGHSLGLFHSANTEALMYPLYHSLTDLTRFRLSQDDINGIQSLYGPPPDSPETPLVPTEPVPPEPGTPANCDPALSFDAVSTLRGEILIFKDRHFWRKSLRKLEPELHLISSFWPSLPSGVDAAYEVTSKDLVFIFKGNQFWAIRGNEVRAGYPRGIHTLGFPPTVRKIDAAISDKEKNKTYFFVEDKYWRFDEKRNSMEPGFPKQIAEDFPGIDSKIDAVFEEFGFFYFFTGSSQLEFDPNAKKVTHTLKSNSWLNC
recombinant human MMP-10, sequence (P09238 99-476): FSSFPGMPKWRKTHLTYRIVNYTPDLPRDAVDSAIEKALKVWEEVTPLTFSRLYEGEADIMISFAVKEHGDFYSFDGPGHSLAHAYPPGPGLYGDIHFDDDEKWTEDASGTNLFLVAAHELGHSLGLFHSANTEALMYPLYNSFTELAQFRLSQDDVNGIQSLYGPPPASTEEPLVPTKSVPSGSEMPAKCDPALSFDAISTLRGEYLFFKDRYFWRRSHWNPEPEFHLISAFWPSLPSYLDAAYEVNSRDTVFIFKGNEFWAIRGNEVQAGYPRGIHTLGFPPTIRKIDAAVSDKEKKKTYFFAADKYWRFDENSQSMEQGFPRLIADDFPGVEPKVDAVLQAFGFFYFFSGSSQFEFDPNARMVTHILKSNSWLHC
recombinant human MMP-8, sequence (P22894 101-467): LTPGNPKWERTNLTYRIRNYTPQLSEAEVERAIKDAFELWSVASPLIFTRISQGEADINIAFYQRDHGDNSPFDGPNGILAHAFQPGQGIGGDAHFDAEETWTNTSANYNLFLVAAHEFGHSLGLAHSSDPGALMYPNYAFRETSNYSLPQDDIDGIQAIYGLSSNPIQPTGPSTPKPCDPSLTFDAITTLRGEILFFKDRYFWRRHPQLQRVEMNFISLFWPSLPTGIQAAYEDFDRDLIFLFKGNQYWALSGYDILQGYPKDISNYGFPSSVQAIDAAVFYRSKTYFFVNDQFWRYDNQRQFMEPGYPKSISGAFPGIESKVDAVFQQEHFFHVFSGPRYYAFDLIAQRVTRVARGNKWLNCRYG
recombinant human MMP-9, sequence (P14780 94-707): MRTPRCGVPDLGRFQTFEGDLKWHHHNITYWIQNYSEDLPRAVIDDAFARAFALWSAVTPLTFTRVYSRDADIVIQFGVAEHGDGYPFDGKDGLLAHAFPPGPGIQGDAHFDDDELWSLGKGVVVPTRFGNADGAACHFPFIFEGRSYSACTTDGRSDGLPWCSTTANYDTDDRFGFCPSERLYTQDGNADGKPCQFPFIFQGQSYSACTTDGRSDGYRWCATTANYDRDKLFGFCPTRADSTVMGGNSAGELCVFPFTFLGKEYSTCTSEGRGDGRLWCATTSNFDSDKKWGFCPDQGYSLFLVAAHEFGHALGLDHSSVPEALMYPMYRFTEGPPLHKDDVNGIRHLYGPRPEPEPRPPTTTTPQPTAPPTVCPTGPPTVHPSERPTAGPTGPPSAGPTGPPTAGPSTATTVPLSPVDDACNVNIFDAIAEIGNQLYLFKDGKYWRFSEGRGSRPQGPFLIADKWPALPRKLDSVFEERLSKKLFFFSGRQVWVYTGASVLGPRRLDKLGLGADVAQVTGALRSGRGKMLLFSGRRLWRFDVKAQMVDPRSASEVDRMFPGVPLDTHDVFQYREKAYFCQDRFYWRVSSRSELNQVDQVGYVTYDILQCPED

SMILES | IC50 (recombinant human MMP-1) | IC50 (recombinant human MMP-2) | IC50 (recombinant human MMP-3) | IC50 (recombinant human MMP-7) | IC50 (recombinant human MMP-8) | IC50 (recombinant human MMP-9) | IC50 (recombinant human MMP-10) | IC50 (recombinant human MMP-13) | IC50 (recombinant human MMP-14)
O=C1NC(=O)C(c2sccc2Sc2ccc(OCc3ccccc3CO)cc2)N1 (stereo not drawn) [TC5] | > 10000 nM | 1000 to 10000 nM | 1000 to 10000 nM | > 10000 nM | 1000 to 10000 nM | 1000 to 10000 nM | 1000 to 10000 nM | > 10000 nM | > 10000 nM
Cc1cc(COc2ccc(Sc3ccncc3C3NC(=O)NC3=O)c(Cl)c2)ccn1 (stereo not drawn) [PC-51] | > 10000 nM | 1000 to 10000 nM | 1000 to 10000 nM | 1000 to 10000 nM | 100 to 1000 nM | 1000 to 10000 nM | 1000 to 10000 nM | 100 to 1000 nM | 1000 to 10000 nM
Cc1cc(COc2ccc(Sc3ccncc3C3NC(=O)NC3=O)c(F)c2)ccn1 (stereo not drawn) [PC-50] | > 10000 nM | 100 to 1000 nM | 100 to 1000 nM | > 10000 nM | 100 to 1000 nM | 1000 to 10000 nM | 1000 to 10000 nM | 100 to 1000 nM | 1000 to 10000 nM
O=C1NC(=O)C(c2ccncc2Sc2ccc(OCc3ccccc3CO)cc2)N1 (stereo not drawn) [PC-12] | > 10000 nM | 1000 to 10000 nM | 100 to 1000 nM | > 10000 nM | 1000 to 10000 nM | 1000 to 10000 nM | 1000 to 10000 nM | > 10000 nM | > 10000 nM
O=C1NC(=O)C(c2cnccc2Sc2ccc(OCc3cccc(CO)c3)cc2)N1 (stereo not drawn) [PC-8] | > 10000 nM | 1000 to 10000 nM | 1000 to 10000 nM | > 10000 nM | > 10000 nM | > 10000 nM | > 10000 nM | 1000 to 10000 nM | > 10000 nM
O=C1NC(=O)C(c2cnccc2Sc2ccc(OCc3cccc(O)c3)cc2)N1 (stereo not drawn) [PC-10] | > 10000 nM | 1000 to 10000 nM | 1000 to 10000 nM | > 10000 nM | 1000 to 10000 nM | 1000 to 10000 nM | > 10000 nM | 1000 to 10000 nM | > 10000 nM
Cc1cc(COc2ccc(Sc3ncoc3C3NC(=O)NC3=O)cc2)ccn1 (stereo not drawn) [OC-7] | > 10000 nM | 100 to 1000 nM | 1000 to 10000 nM | > 10000 nM | 100 to 1000 nM | 1000 to 10000 nM | 1000 to 10000 nM | 100 to 1000 nM | > 10000 nM

The next lines start with the values.

IC50 (recombinant human MMP-1) | IC50 (recombinant human MMP-2) | IC50 (recombinant human MMP-3) | IC50 (recombinant human MMP-7) | IC50 (recombinant human MMP-8) | IC50 (recombinant human MMP-9) | IC50 (recombinant human MMP-10) | IC50 (recombinant human MMP-13) | IC50 (recombinant human MMP-14) | SMILES
> 10000 nM | 1000 to 10000 nM | 1000 to 10000 nM | > 10000 nM | 100 to 1000 nM | 1000 to 10000 nM | 1000 to 10000 nM | 100 to 1000 nM | 1000 to 10000 nM | NC(=O)c1cccc(COc2ccc(Sc3ccncc3C3NC(=O)NC3=O)cc2)c1 (stereo not drawn) [PC-28]
> 10000 nM | 100 to 1000 nM | 1000 to 10000 nM | > 10000 nM | 100 to 1000 nM | 1000 to 10000 nM | 1000 to 10000 nM | 100 to 1000 nM | 1000 to 10000 nM | Cc1cc(COc2ccc(Sc3cnn(C)c3C3NC(=O)NC3=O)cc2)ccn1 (stereo not drawn) [OC-12]
> 10000 nM | 1000 to 10000 nM | 100 to 1000 nM | > 10000 nM | 1000 to 10000 nM | 1000 to 10000 nM | 1000 to 10000 nM | 1000 to 10000 nM | > 10000 nM | O=C1NC(=O)C(c2ccncc2Sc2ccc(OCc3cccc(CO)c3)cc2)N1 (stereo not drawn) [PC-13]
> 10000 nM | 1000 to 10000 nM | 100 to 1000 nM | > 10000 nM | 100 to 1000 nM | 1000 to 10000 nM | 1000 to 10000 nM | 1000 to 10000 nM | 1000 to 10000 nM | O=C1NC(=O)C(c2sccc2Sc2ccc(OCc3cccc(CO)c3)cc2)N1 (stereo not drawn) [TC4]
> 10000 nM | 100 to 1000 nM | 1000 to 10000 nM | > 10000 nM | 100 to 1000 nM | 1000 to 10000 nM | 1000 to 10000 nM | 100 to 1000 nM | 100 to 1000 nM | Cc1cc(COc2ccc(Sc3ncn(C)c3C3NC(=O)NC3=O)cc2)ccn1 (stereo not drawn) [OC-13]
